Experimental data reported in US11912682B2, “Isoindolinone compounds” (Monte Rosa Therapeutics, Inc., priority 2021, dated 2024).
Like-named read-outs stand apart in the source and are kept apart here.

Assays:
Type in all cases: cell-based
CK1alpha = CK1alpha (Homo sapiens (Human), UniProt P48729); test: selectivity by Western blot in MM1S cells, CK1alpha; parameters: key to CK1alpha degradation: A represents a no degradation observed at 30 μM; B represents trace degradation at 30 μM (below 20%); C represents weak degradation at 30 μM (below 50%); D represents degradation at 30 μM (>90%); E represents degradation at 3 μM (>90%); F represents degradation at 0.3 μM (>90%); conditions: for CK1alpha degradation: MM1S cells, 6 hours, 0.3, 3 and 30 μM
CK1alpha, sequence (P48729 whole entry, looked up): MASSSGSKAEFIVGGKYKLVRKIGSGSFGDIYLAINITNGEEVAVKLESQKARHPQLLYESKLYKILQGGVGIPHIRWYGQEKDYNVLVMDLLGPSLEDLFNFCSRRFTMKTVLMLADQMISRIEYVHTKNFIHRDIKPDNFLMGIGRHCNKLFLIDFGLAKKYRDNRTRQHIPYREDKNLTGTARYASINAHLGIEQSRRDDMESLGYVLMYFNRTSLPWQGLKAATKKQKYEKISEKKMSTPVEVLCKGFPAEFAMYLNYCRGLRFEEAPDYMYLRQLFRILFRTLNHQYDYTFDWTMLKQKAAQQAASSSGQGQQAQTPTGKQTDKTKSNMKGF
Description: (§1) MM1S cells were purchased from ATCC (cat. Number CRL-2974), sub-cultured in 90% RPMI 1640 with 10% FBS, supplemented with 1× P/S and incubated at 37° C., 5% CO2. Compounds were stored as 10 mM DMSO stock. For the assay, MM1S cells (3 million cells/well) were plated in 6-well plates and incubated over night. Cells were treated with respective compounds using a serial dilution: 0.3 μM, 3 μM and 30 μM as well as a vehicle only (DMSO) control for 6 hours. Media with suspension cells was subsequently transferred to 15 mL conical tubes, wells rinsed twice with ice-cold PBS and merged with cell suspension in respective 15 mL conical tube. Cells were spinned down, supernatant aspirated, pellets resuspended in ice-cold PBS and transferred to microtubes. Cells were spinned down, supernatant aspirated and pellets resuspended in 120 μL RIPA lysis buffer supplemented with protease and phosphatase inhibitors. Cell lysates were incubated on ice for 20 minutes followed by centrifugation at >20,000 xg for 5 min. Supernatants were transferred to fresh microtubes and stored at −80° C. Total protein concentration was determined using a BCA assay with a BSA standard curve and concentration of all samples was adjusted to 1 mg/mL. 25 μL 4× LDS sample buffer supplemented with 100 mM DTT was added to 75 μL sample. Samples were centrifuged (8,000 xg, 1 min) and incubated at 95° C. for 5 min followed by another centrifugation step (8,000 xg, 1 min). 20 μL of each sample was loaded on a 4-12% gel alongside a protein molecular weight marker. Gels were run in the presence of MOPS buffer at 80 Volts for 30 min, followed by 120 Volts for 1.5 h and proteins subsequently transferred onto nitrocellulose membranes at 20 Volts for 7 min using an iBlot2 Gel Transfer Device. Membranes were then cut horizontally into two pieces, covering 80-50 kDa and 50-25 kDa. Blocking the membranes was performed by gently shaking in 5% (w/v) skim milk in TSB-T for 1 hr at room temperature. All primary antibodies were used at a 1/1000 in 5% (w/v) BSA dissolved in TBST and incubated with membranes over night at 4° C. Anti-IKZF1 (Ikaros; D6N9Y; 14859S), anti-IKZF3 (Aiolos; D1C1E; 15103S) antibodies were purchased from Cell Signalling Technology, anti-ZFP91 antibody from Bethyl laboratories, anti-GSPT1 from Sigma Aldrich (HPA052488) and anti CK1alpha from AbCam (ab206652). After three washes with 1× TBST for 5 min, HRP-coupled secondary antibodies diluted in 5% (w/v) BSA/TBST (Goat Anti-Rb IgG, dil. 1/10,000; Goat Anti-Mouse IgG, dil. 1/5000) were added for 1 hr at room temperature. After three washes with 1× TBST (5 minutes each), membranes were incubated with ECL reagent for 1 min at room temperature. Chemiluminescence signals were then detected using a LAS-4000 system with default settings and signals quantified using Image Studio Lite software (version 5.2). Membrane parts previously incubated with antibody against CK1alpha were stripped off antibodies by incubating with stripping buffer for 30 minutes followed by three washed with TBST (5 min each), blocking with 5% (w/v) skim milk for 1 hr, and incubation with primary antibody against GAPDH overnight at 4° C. Subsequent washes, incubation with secondary antibody and signal acquisition were performed as described above.

GSPT1 [1] = target: T1, GSPT1 (Homo sapiens (Human), UniProt P15170+Q96SW2); test: selectivity by Western blot in MM1S cells, GSPT1; conditions: for GSPT1 degradation: MM1S cells, 6 hours, 0.3, 3 and 30 μM
Description: as §1
Target sequence in this assay (P15170 whole entry, looked up): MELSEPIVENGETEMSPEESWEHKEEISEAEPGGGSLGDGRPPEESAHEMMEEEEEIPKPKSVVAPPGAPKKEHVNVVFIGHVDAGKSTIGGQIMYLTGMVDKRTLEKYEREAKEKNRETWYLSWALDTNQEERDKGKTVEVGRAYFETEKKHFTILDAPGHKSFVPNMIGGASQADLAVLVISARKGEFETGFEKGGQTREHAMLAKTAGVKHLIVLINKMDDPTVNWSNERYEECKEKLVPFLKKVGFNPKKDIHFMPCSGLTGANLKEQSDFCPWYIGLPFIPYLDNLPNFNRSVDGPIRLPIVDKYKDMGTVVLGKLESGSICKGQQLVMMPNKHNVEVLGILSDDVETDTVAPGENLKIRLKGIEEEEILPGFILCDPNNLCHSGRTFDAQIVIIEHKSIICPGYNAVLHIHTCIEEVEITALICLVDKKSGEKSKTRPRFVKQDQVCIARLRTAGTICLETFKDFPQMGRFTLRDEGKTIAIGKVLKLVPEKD
Target sequence in this assay (Q96SW2 whole entry, looked up): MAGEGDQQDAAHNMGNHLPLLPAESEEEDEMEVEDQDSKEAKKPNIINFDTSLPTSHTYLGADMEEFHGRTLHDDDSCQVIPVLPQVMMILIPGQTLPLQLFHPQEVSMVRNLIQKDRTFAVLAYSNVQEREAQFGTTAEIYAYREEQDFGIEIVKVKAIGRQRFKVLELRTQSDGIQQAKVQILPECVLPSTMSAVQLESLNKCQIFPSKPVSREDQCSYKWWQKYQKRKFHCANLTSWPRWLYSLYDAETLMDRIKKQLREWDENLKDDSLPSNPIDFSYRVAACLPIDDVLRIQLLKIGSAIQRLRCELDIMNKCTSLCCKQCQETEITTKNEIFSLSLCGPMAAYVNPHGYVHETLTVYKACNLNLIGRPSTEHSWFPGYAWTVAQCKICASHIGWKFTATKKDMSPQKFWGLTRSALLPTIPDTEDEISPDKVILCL
Target sequence in this assay (Q16531 whole entry partner, looked up): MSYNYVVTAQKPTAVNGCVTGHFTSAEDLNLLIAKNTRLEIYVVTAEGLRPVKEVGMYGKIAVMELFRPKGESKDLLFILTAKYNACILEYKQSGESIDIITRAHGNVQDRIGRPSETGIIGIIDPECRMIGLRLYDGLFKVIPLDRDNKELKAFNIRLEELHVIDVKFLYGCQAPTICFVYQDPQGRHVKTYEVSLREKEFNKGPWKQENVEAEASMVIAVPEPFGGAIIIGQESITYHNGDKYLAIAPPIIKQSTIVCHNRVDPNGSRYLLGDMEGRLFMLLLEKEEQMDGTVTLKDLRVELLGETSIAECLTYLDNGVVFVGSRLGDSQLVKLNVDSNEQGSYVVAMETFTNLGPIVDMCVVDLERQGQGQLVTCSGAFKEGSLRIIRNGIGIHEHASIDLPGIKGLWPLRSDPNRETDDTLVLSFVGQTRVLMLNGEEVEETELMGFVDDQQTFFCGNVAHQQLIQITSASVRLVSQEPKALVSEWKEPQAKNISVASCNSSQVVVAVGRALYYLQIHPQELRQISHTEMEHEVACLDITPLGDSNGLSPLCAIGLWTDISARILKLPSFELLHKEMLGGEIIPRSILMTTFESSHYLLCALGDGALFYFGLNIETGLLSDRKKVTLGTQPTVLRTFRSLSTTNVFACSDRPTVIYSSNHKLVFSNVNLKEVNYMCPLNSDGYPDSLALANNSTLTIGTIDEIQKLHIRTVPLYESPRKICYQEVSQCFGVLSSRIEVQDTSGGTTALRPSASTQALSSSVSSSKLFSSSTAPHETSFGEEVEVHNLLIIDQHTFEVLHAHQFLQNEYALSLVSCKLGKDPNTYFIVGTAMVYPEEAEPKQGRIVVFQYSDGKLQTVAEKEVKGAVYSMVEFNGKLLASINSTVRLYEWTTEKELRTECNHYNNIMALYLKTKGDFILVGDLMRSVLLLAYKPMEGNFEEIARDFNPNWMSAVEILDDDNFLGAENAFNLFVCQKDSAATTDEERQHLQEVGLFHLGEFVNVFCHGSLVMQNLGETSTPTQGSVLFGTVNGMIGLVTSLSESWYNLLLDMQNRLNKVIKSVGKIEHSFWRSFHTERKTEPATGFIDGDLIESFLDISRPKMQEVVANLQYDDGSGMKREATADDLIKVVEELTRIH

GSPT1 [2] = target: T1, GSPT1; test: immunofluorescence assay for GSPT1 degradation in CAL-51 cells (Example 4)
How it was run: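 CAL-51 cells on fibronectin-coated plates were treated 6 h with serial dilutions (30 μM to 0.1 nM), then fixed and immunostained for GSPT1 with DAPI and phalloidin counterstains. Per-cell mean GSPT1 intensity from high-content imaging, normalized to controls; DC50 by non-linear regression.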
Target sequence in this assay (P15170 whole entry): as the sequence (P15170 whole entry, looked up) above
Target sequence in this assay (Q96SW2 whole entry): as the sequence (Q96SW2 whole entry, looked up) above
Target sequence in this assay (Q16531 2-1140 partner): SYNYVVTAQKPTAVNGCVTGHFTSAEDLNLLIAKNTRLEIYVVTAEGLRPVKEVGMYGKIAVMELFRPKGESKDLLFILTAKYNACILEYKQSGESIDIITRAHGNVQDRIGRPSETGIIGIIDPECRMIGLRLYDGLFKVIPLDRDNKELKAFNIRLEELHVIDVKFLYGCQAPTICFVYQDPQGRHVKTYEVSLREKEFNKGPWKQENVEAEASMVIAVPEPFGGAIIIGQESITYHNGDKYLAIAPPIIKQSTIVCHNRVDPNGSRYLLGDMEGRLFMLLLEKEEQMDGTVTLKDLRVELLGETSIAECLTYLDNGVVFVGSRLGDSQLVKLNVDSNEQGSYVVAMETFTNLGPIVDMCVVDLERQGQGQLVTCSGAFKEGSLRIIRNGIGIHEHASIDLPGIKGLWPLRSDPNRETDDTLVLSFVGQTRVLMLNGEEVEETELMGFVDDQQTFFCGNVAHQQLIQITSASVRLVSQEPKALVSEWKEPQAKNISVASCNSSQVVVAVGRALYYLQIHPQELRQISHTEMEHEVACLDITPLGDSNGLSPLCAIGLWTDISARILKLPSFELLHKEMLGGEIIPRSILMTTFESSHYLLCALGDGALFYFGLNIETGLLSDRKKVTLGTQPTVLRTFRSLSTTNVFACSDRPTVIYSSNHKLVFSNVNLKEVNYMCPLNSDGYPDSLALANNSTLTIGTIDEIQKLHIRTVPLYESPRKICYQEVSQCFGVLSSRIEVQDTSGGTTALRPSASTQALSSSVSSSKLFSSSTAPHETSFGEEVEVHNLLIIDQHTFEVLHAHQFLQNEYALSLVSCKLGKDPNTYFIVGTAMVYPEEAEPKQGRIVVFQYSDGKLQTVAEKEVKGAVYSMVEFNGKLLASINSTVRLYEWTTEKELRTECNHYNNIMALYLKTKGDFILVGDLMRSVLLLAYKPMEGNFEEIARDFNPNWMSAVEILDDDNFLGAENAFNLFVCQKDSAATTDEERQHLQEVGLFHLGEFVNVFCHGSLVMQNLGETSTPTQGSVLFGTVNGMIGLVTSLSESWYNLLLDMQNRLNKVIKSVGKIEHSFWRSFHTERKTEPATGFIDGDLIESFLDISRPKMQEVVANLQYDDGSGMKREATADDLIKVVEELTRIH

[3] = 6 hours, read-out: Activity for GSPT1 degradation, Code (DC50)
[4] = GSPT1 degradation, read-out: DC50 value

With `CC(C)(C)c1ccc(NC(=O)OCc2ccc3c(c2)C(=O)N(C2CCC(=O)NC2=O)C3)cn1` (stereo not shown) [Compound 43] the CK1alpha degradation (CK1alpha) was “C (C represents weak degradation at 30 μM (below 50%))”, the GSPT1 degradation (GSPT1 [1]) was “F (F represents degradation at 0.3 μM (>90%))” and the DC50 (GSPT1 [2]; [3]) was < 30 nM. For the same compound, the DC50 (GSPT1 [2]; [4]) was ≤ 30 nM.
`Cc1ncc(NC(=O)OCc2ccc3c(c2)C(=O)N(C2CCC(=O)NC2=O)C3)cc1Cl` (stereo not shown) [Compound 6] was tested, and the CK1alpha degradation (CK1alpha) was “A”, the GSPT1 degradation (GSPT1 [1]) was “F (F represents degradation at 0.3 μM (>90%))” and the DC50 (GSPT1 [2]; [3]) was < 30 nM. The DC50 (GSPT1 [2]; [4]) was ≤ 30 nM.
`O=C1CCC(N2Cc3ccc(COC(=O)Nc4ccc(-c5ccccc5)nc4)cc3C2=O)C(=O)N1` (stereo not shown) [Compound 42] was tested, and the CK1alpha degradation (CK1alpha) was “B (B represents trace degradation at 30 μM (below 20%))”, the GSPT1 degradation (GSPT1 [1]) was “F (F represents degradation at 0.3 μM (>90%))” and the DC50 (GSPT1 [2]; [3]) was < 30 nM. The DC50 (GSPT1 [2]; [4]) was ≤ 30 nM.
For `Cc1ccc(NC(=O)OCc2ccc3c(c2)C(=O)N(C2CCC(=O)NC2=O)C3)cc1Cl` (stereo not shown) [Compound 10], the CK1alpha degradation (CK1alpha) was “B (B represents trace degradation at 30 μM (below 20%))”, the “CK1alpha degradation (FIG. 1A)” value (CK1alpha; highest concentration tested of 30 μM) was “none of the known the substrates IKZF1, IKZF3, SALL4, CK1alpha was degraded” and the GSPT1 degradation (GSPT1 [1]) was “D (D represents degradation at 30 μM (>90%))”. The “GSPT1 degradation (FIG. 1A)” value (GSPT1 [1]; cells treated at 0.3 μM) was “complete GSPT1 degradation”, the DC50 (GSPT1 [2]; [3]) was < 30 nM and the DC50 (GSPT1 [2]; [4]) was ≤ 30 nM.
In the case of `O=C1CCC(N2Cc3ccc(COC(=O)Nc4ccc(N5CCCCC5)nc4)cc3C2=O)C(=O)N1` (stereo not shown) [Compound 15], the CK1alpha degradation (CK1alpha) is reported as “C (C represents weak degradation at 30 μM (below 50%))”, the GSPT1 degradation (GSPT1 [1]) is reported as “F (F represents degradation at 0.3 μM (>90%))” and the DC50 (GSPT1 [2]; [3]) is reported as < 30 nM. The DC50 (GSPT1 [2]; [4]) was ≤ 30 nM.
